Details: 283.14 K, Liquid, Vibrating tube method

CCCCCCC(=O)OCC(COC(=O)CCCCCC)(COC(=O)CCCCCC)COC(=O)CCCCCC [pentaerythritol tetraheptanoate]
Details	mass density [kg/m3]
8943.7 kPa	991
8967.5 kPa	991
8987.8 kPa	991
9012.5 kPa	991
9033.2 kPa	991
9051.6 kPa	991
9069.4 kPa	991.1
9088.3 kPa	991.2
9103.3 kPa	991.1
9118.5 kPa	991
9136.4 kPa	991.1
9152.5 kPa	991.2
9168 kPa	991
9183.2 kPa	991.1
9198.7 kPa	991.1
9217 kPa	991.1
9232.5 kPa	991.1
9248.5 kPa	991.2
9267.1 kPa	991.1
9282.6 kPa	991.2
9298.5 kPa	991.2
9317.3 kPa	991.3
9333.1 kPa	991.2
9348.8 kPa	991.2
9368.1 kPa	991.1
9382 kPa	991.2
9401.3 kPa	991.2
9417.4 kPa	991.2
9436.7 kPa	991.3
9452.9 kPa	991.4
9468.9 kPa	991.2
9485.1 kPa	991.2
9504.9 kPa	991.3
9521.4 kPa	991.3
9538.2 kPa	991.1
9557.6 kPa	991.3
9574.2 kPa	991.5
9594.2 kPa	991.3
9610.7 kPa	991.3
9644.3 kPa	991.4
9664.8 kPa	991.3
9681.7 kPa	991.4
9698.7 kPa	991.4
9719.2 kPa	991.4
9736.6 kPa	991.4
9771.3 kPa	991.5
9792.1 kPa	991.4
9809.7 kPa	991.5
9845.5 kPa	991.4
9866.9 kPa	991.4
9884.8 kPa	991.4
9902.5 kPa	991.6
9923.9 kPa	991.5
9942.1 kPa	991.6
9960.2 kPa	991.5
9978.3 kPa	991.6
9999.8 kPa	991.7
10018 kPa	991.6
10037 kPa	991.5
10059 kPa	991.6
10078 kPa	991.6
10096 kPa	991.5
10114 kPa	991.8
10137 kPa	991.6
10156 kPa	991.6
10174 kPa	991.6
10197 kPa	991.7
10216 kPa	991.6
10239 kPa	991.8
10258 kPa	991.7
10277 kPa	991.6
10296 kPa	991.7
10319 kPa	991.7
10339 kPa	991.8
10359 kPa	991.8
10382 kPa	991.8
10401 kPa	991.8
10425 kPa	991.8
10445 kPa	991.9
10465 kPa	991.8
10485 kPa	991.9
10509 kPa	991.7
10529 kPa	991.9
10549 kPa	991.9
10574 kPa	991.8
10595 kPa	992
10615 kPa	991.9
10640 kPa	991.9
10661 kPa	991.9
10682 kPa	991.9
10706 kPa	991.9
10727 kPa	992
10748 kPa	991.9
10770 kPa	992
10795 kPa	992
10816 kPa	991.9
10842 kPa	991.9
10863 kPa	992
10886 kPa	992.1
10909 kPa	992
10931 kPa	992
10957 kPa	992.1
10979 kPa	992
11005 kPa	992.2
11028 kPa	992.2
11050 kPa	992.2
11072 kPa	992
11100 kPa	992.1
11122 kPa	992.2
11145 kPa	992.2
11173 kPa	992.1
11197 kPa	992.2
11221 kPa	992.2
11244 kPa	992.2
11266 kPa	992.3
11294 kPa	992.2
11318 kPa	992.3
11342 kPa	992.2
11370 kPa	992.4
11394 kPa	992.3
11422 kPa	992.3
11446 kPa	992.3
11470 kPa	992.3
11499 kPa	992.4
11524 kPa	992.4
11548 kPa	992.4
11573 kPa	992.4
11602 kPa	992.4
11627 kPa	992.5
11657 kPa	992.5
11682 kPa	992.4
11707 kPa	992.5
11732 kPa	992.5
11762 kPa	992.5
11788 kPa	992.6
11813 kPa	992.5
11844 kPa	992.7
11870 kPa	992.6
11901 kPa	992.5
11928 kPa	992.7
11954 kPa	992.7
11981 kPa	992.5
12013 kPa	992.6
12040 kPa	992.6
12067 kPa	992.6
12099 kPa	992.8
12127 kPa	992.7
12161 kPa	992.8
12190 kPa	992.6
12219 kPa	992.7
12243 kPa	992.7
12264 kPa	992.8
12288 kPa	992.8
12308 kPa	992.8
12333 kPa	992.8
12353 kPa	992.7
12373 kPa	992.9
12398 kPa	992.9
12418 kPa	992.9
12439 kPa	993
12464 kPa	992.9
12485 kPa	993
12506 kPa	992.8
12527 kPa	992.9
12553 kPa	992.9
12574 kPa	993
12596 kPa	993
12622 kPa	992.9
12643 kPa	993.1
12665 kPa	993
12687 kPa	993
12713 kPa	993
12734 kPa	993
12760 kPa	993.1
12782 kPa	993.1
12805 kPa	993.1
12827 kPa	993
12854 kPa	993.1
12876 kPa	993.3
12899 kPa	993.1
12926 kPa	993.1
12948 kPa	993.1
12971 kPa	993.2
12999 kPa	993.2
13021 kPa	993.2
13045 kPa	993.2
13072 kPa	993.3
13096 kPa	993.2
13123 kPa	993.2
13146 kPa	993.3
13176 kPa	993.3
13201 kPa	993.2
13225 kPa	993.3
13243 kPa	993.4
13262 kPa	993.3
13278 kPa	993.3
13294 kPa	993.4
13313 kPa	993.3
13329 kPa	993.4
13348 kPa	993.4
13365 kPa	993.4
13383 kPa	993.3
13399 kPa	993.4
13418 kPa	993.5
13435 kPa	993.4
13451 kPa	993.5
13471 kPa	993.6
13488 kPa	993.4
13504 kPa	993.6
13524 kPa	993.4
13541 kPa	993.5
13558 kPa	993.5
13578 kPa	993.5
13595 kPa	993.5
13612 kPa	993.5
13632 kPa	993.5
13648 kPa	993.5
13666 kPa	993.5
13687 kPa	993.7
13704 kPa	993.7
13721 kPa	993.6
13738 kPa	993.6
13759 kPa	993.6
13776 kPa	993.6

Source: the NIST ThermoML archive (doi:10.1021/je060271a)
